This is an account of results in publication PMC5132201, “Formylated MHC Class Ib Binding Peptides Activate Both Human and Mouse Neutrophils Primarily through Formyl Peptide Receptor 1” (PLoS ONE, 2016).

The test system of one experiment is M3. The following applies: high-, medium- and low-binders by induction of M3 expression on P388-M3 transfected cells; cited from earlier work.
The target in a further experiment is T1, human neutrophils (Homo sapiens, UniProt P21462).
T1 sequence (P21462 1-350): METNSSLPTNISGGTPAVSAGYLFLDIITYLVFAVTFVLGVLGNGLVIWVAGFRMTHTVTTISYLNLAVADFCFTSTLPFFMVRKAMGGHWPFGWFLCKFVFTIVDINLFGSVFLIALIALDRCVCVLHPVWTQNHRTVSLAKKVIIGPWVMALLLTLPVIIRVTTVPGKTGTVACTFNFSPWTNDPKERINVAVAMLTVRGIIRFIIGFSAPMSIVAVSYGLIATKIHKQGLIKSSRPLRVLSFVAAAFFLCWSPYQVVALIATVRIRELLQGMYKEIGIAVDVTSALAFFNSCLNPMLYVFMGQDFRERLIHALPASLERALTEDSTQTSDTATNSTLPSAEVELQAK
Kind of experiment: NADPH-oxidase activity (superoxide production), isoluminol/HRP chemiluminescence, human neutrophils. The class given is cell-based. Conditions: for Concentration needed to induce full NADPH-oxidase activity: efficacy close to that of fMIFL; for EC50, NADPH-oxidase activity (superoxide production): isoluminol/HRP chemiluminescence, 37°C, peak response as percent of maximal response, mean of 3-4 independent experiments.

In experiment [1] the target is T2, bone marrow derived mouse neutrophils (Mus musculus, UniProt P33766).
T2 sequence (P33766 1-364): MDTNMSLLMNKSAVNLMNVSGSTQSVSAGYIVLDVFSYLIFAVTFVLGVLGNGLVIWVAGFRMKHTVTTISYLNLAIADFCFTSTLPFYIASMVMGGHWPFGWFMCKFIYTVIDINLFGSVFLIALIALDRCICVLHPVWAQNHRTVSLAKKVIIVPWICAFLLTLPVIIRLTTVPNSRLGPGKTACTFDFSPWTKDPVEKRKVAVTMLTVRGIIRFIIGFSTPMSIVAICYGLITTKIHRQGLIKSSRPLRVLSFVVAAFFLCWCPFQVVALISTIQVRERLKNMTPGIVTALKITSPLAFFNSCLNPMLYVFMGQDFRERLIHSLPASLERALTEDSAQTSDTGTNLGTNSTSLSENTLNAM
Conditions: for EC50, NADPH-oxidase activity (superoxide production): TNF-α primed bone marrow derived mouse neutrophils, isoluminol/HRP chemiluminescence, 37°C, peak response as percent of maximal response, mean of 3-4 independent experiments; for Relative potency, mouse versus human neutrophils: comparison of EC50 values of NADPH-oxidase activation in the two species.

In another experiment the test system is FPR2. Kind of experiment: NADPH-oxidase activity in human neutrophils pre-incubated with the FPR2 antagonist PBP10. Conditions: human neutrophils pre-incubated 5 min at 37°C with 1 μM PBP10 (FPR2 antagonist). Type of experiment: cell-based. On the procedure: (§1) NADPH-oxidase activity was determined using isoluminol and HRP-enhanced chemiluminescence (CL) systems that allow for the determination of superoxide production. […] The tubes containing 4 U HRP and 10 μg/ml isoluminol together with the cells were equilibrated in the Biolumat for 10 min at 37°C, after which the stimulus (100 μl) was added. The light emission was recorded continuously.
(§2) Neutrophil NADPH-oxidase activity was measured by an isoluminol/HPR chemiluminescence system. […] (10 nM; time for addition indicated by an arrow). […] (1 μM) in the presence or absence (control) of FPR specific inhibitors. Abscissa, Time of study (min); ordinate, superoxide production (in arbitrary light units, cpmx10^-6). […] Data are expressed as mean ± SD from four independent experiments. Abscissa, agonist concentration (M); ordinate, superoxide production (percent of max).

The subject of another experiment is FPR1. Kind of experiment: NADPH-oxidase activity in human neutrophils pre-incubated with the FPR1 antagonist cyclosporine H. The class given is cell-based. The following applies: for Effect of cyclosporine H on the peptide-induced activity: human neutrophils pre-incubated 5 min at 37°C with 1 μM cyclosporine H (FPR1 antagonist); for Preferred receptor: human neutrophils, from cyclosporine H / PBP10 sensitivity. How it is done:
as §1, §2

A further experiment deals with H2-M3. The following applies: crystal structure study; cited from earlier work. From the text:
Much less is known about the murine Fprs. It is clear that mouse neutrophils express orthologous of FPR1 and FPR2 (Fpr1 and Fpr2, respectively), but the pharmacological similarities/differences between the human and mouse neutrophil receptors have not been characterized in detail. […] In addition to Fprs, another immune response system, the H2-M3 complex, has evolved in ...

Another experiment deals with Fpr2^-/- neutrophils. Description: NADPH-oxidase activity in neutrophils from wild type versus Fpr2-/- mice. The class given is cell-based. Conditions: mouse neutrophils; from WT versus Fpr2-/- cells.
In experiment [2] the target is formyl peptide receptor 1 (human) (human (endogenous in neutrophils)) (UniProt P21462).
Experiment [3] addresses formyl peptide receptor 1 (mouse) (mouse (endogenous in bone marrow neutrophils)) (UniProt P33766).
The target in experiment [4] is formyl peptide receptor 1 (human) (human (endogenous in neutrophils)) (UniProt P21462). This is another data set of the same source.
The target is the same in experiment [5]. The source holds these as a separate data set.

Square brackets hold non-standard residues; d marks the D form. Ends that are not written are not given here. Peptide text beside a SMILES is read from it. * marks the point of attachment. For = O=C*

From the text for Fpr2^-/- neutrophils: Mice (10–16 weeks of age) were killed by cervical dislocation, the femurs and tibias were removed and freed of soft tissue attachments, and the extreme distal tip of each extremity was cut off. KRG without Ca^2+ and Mg^2+ (KRG-) was forced through the bone by using a 1-ml syringe with a 27-gauge needle. After dispersing cell clumps and removing the debris, the bone marrow granulocytes were isolated according to an earlier described procedure [26] with some modifications. Briefly, cell suspensions in 2 ml of KRG (−) were laid on top of a three-layer Percoll gradient (1.095, 1.085, and 1.070 g/ml). The density of each Percoll solution was verified using density marker beads. […] The cell number and population of bone marrow cells were determined by flow cytometry.
NADPH-oxidase activity was determined using isoluminol and HRP-enhanced chemiluminescence (CL) systems that allow for the determination of superoxide production [27, 28]. […] The light emission was recorded continuously.
Naïve bone marrow cells produce very low level of superoxide upon stimulation and to increase this production, the cells were routinely primed for one hour at RT follow by mouse recombinant TNF-α (10 ng/ml, final concentration) priming for a period of 20 min at 37°C, after which the cells were stimulated and ROS production was determined as described above.

On to fMILLV, for which the “M3 binding affinity group” value in the experiment with M3 is “highest M3 affinity”. Also, on human neutrophils (human neutrophils), the “Concentration needed to induce full NADPH-oxidase activity” value (“Concentration needed” below) is recorded as “around 100 nM” and the “EC50, NADPH-oxidase activity (superoxide production)” value (“EC50, NADPH-oxidase activity” below) is recorded as “low nM range”. Moreover, in experiment [1], the “EC50, NADPH-oxidase activity” value is on record as “low nM range” and the “Relative potency, mouse versus human neutrophils” value (“Relative potency” below) is on record as “equally potent”.
In the case of MYFINILTL, in the experiment on FPR2, the “Effect of PBP10 on the peptide-induced activity” value was “inhibited by PBP10”. For the same molecule, the NADPH-oxidase activity induced entry is reported as “No activity” at human neutrophils (human neutrophils, concentrations lower than 1 μM); “very low level of activity” at human neutrophils (human neutrophils, peptide 1 μM (Fig 1A inset)); “No activity” in [1]. For the same molecule, the “Effect of cyclosporine H on the peptide-induced activity” value in the experiment on FPR1 is “not by cyclosporine H”. Besides, the Preferred receptor result in the experiment on FPR1 is reported as “FPR2”.
For the molecule fMIVIL, in the experiment on M3, the “M3 binding affinity group” value is “highest M3 affinity”. Besides, at human neutrophils (human neutrophils), the “EC50, NADPH-oxidase activity” value is recorded as “low nM range”. In addition, in experiment [1], the “EC50, NADPH-oxidase activity” value is listed as “low nM range” and the “Relative potency” value was “order of potency was reversed”.
Turning to GYFINILTL, the Neutrophil activation result (at human neutrophils; in experiment [1]) was “Neither human nor mouse neutrophils could be activated” each time.
For fMLFAAL, the “M3 binding affinity group” value in the experiment on M3 was “lowest binding affinity”. Also, on human neutrophils (human neutrophils), the “Potency rank among the peptides” value is recorded as “most potent to activate human neutrophils” and the “Concentration needed” value is “around 100 nM”. For the same molecule, in [1], the “Relative potency” value was “potencies were reversed”.
Take fGYFINILTL: the Neutrophil activation entry (on human neutrophils; in experiment [1]) was “Neither human nor mouse neutrophils could be activated” throughout.
`CC[C@H](C)[C@H](NC(=O)[C@H](CC(N)=O)NC(=O)[C@@H](NC(=O)[C@H](Cc1ccccc1)NC(=O)[C@H](Cc1ccc(O)cc1)NC(=O)[C@H](CCSC)NC=O)[C@@H](C)CC)C(=O)N[C@@H](CC(C)C)C(=O)N[C@H](C(=O)N[C@@H](CC(C)C)C(=O)O)[C@@H](C)O` (For-MYFINILTL-OH; C-terminus assumed): in the experiment on FPR2, the “Effect of PBP10 on the peptide-induced activity” value is reported as “no inhibition”. In addition, the “Preference of H2-M3 for binding the N-formylated over the non-formylated peptide” value in the experiment with H2-M3 was 10^4 fold. The “Agonist efficacy (full/partial)” value on human neutrophils (human neutrophils, compared with fMLF or fMIFL) is listed as “full agonist”. The “Concentration needed” value at human neutrophils (human neutrophils) is on record as “around 100 nM”. The Preferred receptor result in the experiment on Fpr2^-/- neutrophils is recorded as “Fpr1”. Further, in experiment [1], the half-maximal effective concentration (EC50) was determined as 14 nM and the “EC50, NADPH-oxidase activity” value was “low nM range”. Besides, in the experiment on FPR1, the “Effect of cyclosporine H on the peptide-induced activity” value is reported as “inhibited” and the Preferred receptor entry is listed as “FPR1”.
Turning to fMFFLDA, the “M3 binding affinity group” value in the experiment on M3 is reported as “middle range”. In [1], the “Relative potency” value was “very similar in the two species”.
Regarding fMWYYLF, the “M3 binding affinity group” value in the experiment with M3 was “lowest binding affinity”. Moreover, the “Relative potency” value in experiment [1] is given as “more potent for murine cells than for human cells”. Besides, the “Potency rank among the peptides” value in experiment [1] (mouse neutrophils) is “most potent to activate mouse neutrophils”.
For fMIVVLV, the “M3 binding affinity group” value in the experiment on M3 was “highest M3 affinity”. Also, the “EC50, NADPH-oxidase activity” value at human neutrophils (human neutrophils) is reported as “low nM range”. In addition, in experiment [1], the “EC50, NADPH-oxidase activity” value was “low nM range” and the “Relative potency” value is recorded as “more potent on mouse cells than on human cells”.
Consider For-MFLIDV [fMFLIDV], for which the EC50 of NADPH-oxidase activity in human neutrophils in [2] is 100 nM. The EC50 of NADPH-oxidase activity in mouse neutrophils in [3] was found to be 1 nM.
For-MYFINILTL [f…] gave an EC50 of NADPH-oxidase activity (superoxide production, isoluminol/HRP chemiluminescence) in human neutrophils in experiment [4] of 5 nM.
Take For-[dM]YFINILTL [fmYFINILTL]: the EC50 of superoxide release from human neutrophils in [5] worked out at 200 nM.

In general, EC50 refers to the concentration giving half of the maximal effect. A high value points to weaker potency.
